Data published in PubChem BioAssay AID1963971 (Molecular Pharmacology Branch, DTP, NCI, 2024).
Several values for one entry are separate records, joined by “and”; a condition that tells them apart may be missing. Identical values can stand only once.

System: 953936-095-R-J2-PDC spheroids with HUVEC/MSC, viability
Assay: Anticancer human tumor 953936-095-R-J2-PDC patient-derived cervical squamous cell carcinoma cell line growth inhibition [PI3K]
Conditions: for viability, T/C: stronger effect = lower value
Source text: Combinatorial screen of targeted agents with the PI3K inhibitors inavolisib, alpelisib, duvelisib, and copanlisib in multi-cell type tumor spheroids
A high-throughput screen of multi-cell type tumor spheroids was designed to identify active combinations of targeted small molecules and PI3K pathway inhibitors. Complex spheroids include a stromal component modeled by human endothelial cells (HUVEC) and fibroblasts modeled by human mesenchymal stem cells (MSCs). The concentration ranges selected for each drug and investigational agent were based upon clinically achievable concentrations if the clinical Cmax of the agent was known.
Compounds. The drugs and investigational agents: inavolisib (NSC800729), alpelisib (NSC765974), duvelisib (NSC772469), copanlisib (NSC816437), ipatasertib (NSC767898), afuresertib (NSC778305), talazoparib (NSC767125), sapanisertib (NSC764658), selumetinib (NSC741078), tovorafenib (DAY101, NSC766906), vemurafenib (NSC761431), ravoxertinib (NSC781343), sotorasib (NSC818433), MRTX1133 (NSC 836407), abemaciclib (NSC 768073), palbociclib (NSC758247), venetoclax (NSC 766270), SY5609 (NSC837396), enzalutamide (NSC755605), and darolutamide (NSC825331), were obtained from the National Cancer Institute (NCI) Developmental Therapeutics Program Chemical Repository. The FDA-approved anticancer drug set is available from the NCI Developmental Therapeutics Program. […] The stock solutions were prepared in dimethyl sulfoxide (DMSO, Sigma-Aldrich, St. Louis, MO, cat. D2650) at 800-fold the tested concentration and stored at -70 degrees C prior to their use. All drugs and investigational agents were tested over a range starting from a high concentration at or near the clinical Cmax and decreasing in half-log increments. If the clinical Cmax for an agent had not been determined, the highest concentration tested was 10 microM.
Cell Culture. All cells were maintained in an incubator at 37 degrees C and 5% CO2 with 95% humidity. The PDC lines were cultured according to standard operating procedures established by the NCI PDMR (https://pdmr.cancer.gov/sops/default.htm). All PDCs were thawed and cultured in Matrigel-coated flasks prepared with a working solution of 1X Ham's F-12 nutrient mix, without supplementation (Invitrogen, Waltham, MA, cat. 11765054), 100 U/mL penicillin-streptomycin (Invitrogen, cat. 15140122), and 2.5% Matrigel (Corning Inc., Corning, NY, cat. 354248) for the first three passages. The 354836-022-R-J1-PDC, 475296-252-R-J1-PDC, and 997726-040-R-J2-PDC lines were cultured in 6A media, which includes advanced DMEM/F-12 (Thermo Fisher Scientific, cat. 12634028), 10 mM HEPES (Thermo Fisher Scientific, cat. 15630080), 1X GlutaMAX supplement (Thermo Fisher Scientific, cat. 35050061), 0.1 mg/mL primocin (InvivoGen, San Diego, CA, cat. ant-pm-2), 10% defined fetal bovine serum, heat inactivated (HyClone Laboratories Inc., Logan, UT, cat. SH30070.03HI), 50% L-WRN conditioned media (ATCC, cat. CRL-3276), 1.25 mM N-Acetyl-L-cysteine (Sigma-Aldrich, cat. A9165), 10 mM nicotinamide (Sigma-Aldrich, cat. N0636), 1X B-27 supplement (Thermo Fisher Scientific, cat. 17504044), 1X N-2 supplement (Thermo Fisher Scientific, cat. 17502048), and 10 microM Y-27632 dihydrochloride (Tocris Bioscience, Bristol, United Kingdom, cat. 1254). The 624824-186-R-J2-PDC line was cultured in 6C/Colon 1B media, which includes all 6A media components plus 50 ng/mL human EGF recombinant protein (Thermo Fisher Scientific, cat. PHG0311). […]
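Further: spheroids exposed to compounds for seven days before read-out.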

Structure (SMILES): C#Cc1c(F)ccc2cc(O)cc(-c3ncc4c(N5CC6CCC(C5)N6)nc(OCC56CCCN5CC(F)C6)nc4c3F)c12 (configuration not stated)
- viability, T/C (compound 0.0316 µM): 115% [middle of 4 runs]
- viability, T/C (compound 0.1 µM): 97.5% [middle of 4 runs]
- viability, T/C (compound 0.316 µM): 101% [middle of 4 runs]
- viability, T/C (compound 1 µM): 92.4% [middle of 4 runs]
- viability, T/C (compound 3.16 µM): 85.2% [middle of 4 runs]
- viability, T/C (compound 10 µM): 81% [middle of 4 runs]
- IC50 (curve of compound): > 10000 nM

Structure (SMILES): C=CC(=O)N1CCN(c2nc(=O)n(-c3c(C)ccnc3C(C)C)c3nc(-c4c(O)cccc4F)c(F)cc23)C(C)C1 (configuration not stated)
- viability, T/C (compound 0.0316 µM): 93.6% [middle of 4 runs]
- viability, T/C (compound 0.1 µM): 100% (2×) and 105% and 96.7%
- viability, T/C (compound 0.316 µM): 108% [middle of 4 runs]
- viability, T/C (compound 1 µM): 121% [middle of 4 runs]
- viability, T/C (compound 10 µM): 118% (2×) and 112% and 127%
- IC50 (curve of compound): > 10000 nM

Structure (SMILES): Cn1ncc(Cl)c1-c1cc(C(=O)NC(CN)Cc2cccc(F)c2)sc1Cl (configuration not stated)
- viability, T/C (compound 0.0316 µM): 93.5% [middle of 4 runs]
- viability, T/C (compound 0.1 µM): 82.7% [middle of 4 runs]
- viability, T/C (compound 0.316 µM): 64.7% [middle of 4 runs]
- viability, T/C (compound 1 µM): 37.6% and 37.7% (2×) and 35.5%
- viability, T/C (compound 3.16 µM): 21.1% [middle of 4 runs]
- viability, T/C (compound 10 µM): 13.2% and 12.6% (2×) and 13.7%
- IC50 (curve of compound): 597 nM [middle of 4 runs]

Structure (SMILES): Cn1cnc2c(F)c(Nc3ccc(Br)cc3Cl)c(C(=O)NOCCO)cc21 + CC(Nc1ccc2c(c1)OCCn1cc(N3C(=O)OCC3C(F)F)nc1-2)C(N)=O
- IC50 (curve of first compound, second compound 0.00316 µM): 494 nM
- IC50 (curve of first compound, second compound 0.01 µM): 279 nM
- IC50 (curve of first compound, second compound 0.0316 µM): 88.5 nM
- IC50 (curve of first compound, second compound 0.1 µM): < 9.49 nM
- IC50 (curve of first compound, second compound 0.316 µM): < 9.49 nM
- IC50 (curve of first compound, second compound 1 µM): < 9.49 nM
- viability, T/C (second compound 0.00316 µM, first compound 0.00949 µM): 88.3%
- viability, T/C (second compound 0.00316 µM, first compound 0.03 µM): 81.4%
- viability, T/C (second compound 0.00316 µM, first compound 0.0949 µM): 66%
- viability, T/C (second compound 0.00316 µM, first compound 0.3 µM): 55.7%
- viability, T/C (second compound 0.00316 µM, first compound 0.949 µM): 43.7%
- viability, T/C (second compound 0.00316 µM, first compound 3 µM): 30.2%
- viability, T/C (second compound 0.01 µM, first compound 0.00949 µM): 75.6%
- viability, T/C (second compound 0.01 µM, first compound 0.03 µM): 68.5%
- viability, T/C (second compound 0.01 µM, first compound 0.0949 µM): 60%
- viability, T/C (second compound 0.01 µM, first compound 0.3 µM): 51.5%
- viability, T/C (second compound 0.01 µM, first compound 0.949 µM): 35%
- viability, T/C (second compound 0.01 µM, first compound 3 µM): 26.3%
- viability, T/C (second compound 0.0316 µM, first compound 0.00949 µM): 67.9%
- viability, T/C (second compound 0.0316 µM, first compound 0.03 µM): 56.6%
- viability, T/C (second compound 0.0316 µM, first compound 0.0949 µM): 49.7%
- viability, T/C (second compound 0.0316 µM, first compound 0.3 µM): 42.5%
- viability, T/C (second compound 0.0316 µM, first compound 0.949 µM): 29.7%
- viability, T/C (second compound 0.0316 µM, first compound 3 µM): 20.6%
- viability, T/C (second compound 0.1 µM, first compound 0.00949 µM): 46%
- viability, T/C (second compound 0.1 µM, first compound 0.03 µM): 41.2%
- viability, T/C (second compound 0.1 µM, first compound 0.0949 µM): 38.7%
- viability, T/C (second compound 0.1 µM, first compound 0.3 µM): 23.9%
- viability, T/C (second compound 0.1 µM, first compound 0.949 µM): 16.1%
- viability, T/C (second compound 0.1 µM, first compound 3 µM): 7.95%
- viability, T/C (second compound 0.316 µM, first compound 0.00949 µM): 28.1%
- viability, T/C (second compound 0.316 µM, first compound 0.03 µM): 23%
- viability, T/C (second compound 0.316 µM, first compound 0.0949 µM): 16.6%
- viability, T/C (second compound 0.316 µM, first compound 0.3 µM): 11.6%
- viability, T/C (second compound 0.316 µM, first compound 0.949 µM): 6.22%
- viability, T/C (second compound 0.316 µM, first compound 3 µM): 3.26%
- viability, T/C (second compound 1 µM, first compound 0.00949 µM): 18.6%
- viability, T/C (second compound 1 µM, first compound 0.03 µM): 14.5%
- viability, T/C (second compound 1 µM, first compound 0.0949 µM): 10.3%
- viability, T/C (second compound 1 µM, first compound 0.3 µM): 8.09%
- viability, T/C (second compound 1 µM, first compound 0.949 µM): 4.74%
- viability, T/C (second compound 1 µM, first compound 3 µM): 1.5%
